Experimental data reported in patent US8193200B2, “Antagonists of A2B adenosine receptors for treatment of inflammatory bowel disease” (University of Virginia Patent Foundation, priority 2007, dated 2012).

Key:
Format in all cases: in vivo, mouse
[1] = system: C57BL/6 mice with DSS-induced colitis; assay: DSS-induced colitis: clinical and histological scoring, colon weight and length; conditions: for Total Lesion Score (histological score): score range 0-11, DSS 9.1 ± 2.1
Procedure: Colitis was induced in male C57BL/6 mice by oral administration of DSS (molecular wt. 50000; ICN Biomedicals, Aurora, Ohio) at 3% (wt/vol) in tap water ad libitum for 6 days. Age-matched male wild-type C57BL6 mice receiving tap water served as controls. Mice were observed daily and evaluated for changes in body weight and development of clinical symptoms. Mice were given ATL-801 10 mg/Kg diet approximately 20 μg/day/mice) during the administration of DSS.
(§1) Assessment of body weights, stool consistency, and the presence of occult/gross blood by a guaic test (Hemoccult Sensa; Beckman Coulter, Fullerton, Calif.) were performed daily for each mouse. Colitis was quantified with a clinical and histological score, as described by Cooper, et. al. Clinical score was based on weight loss, stool consistency, and fecal blood (score range 0-12). Histological scoring was performed based on three variables, extent of inflammatory infiltrate, mucosal ulcers and severity of crypt (score range 0-11). IL-10^−/− mouse colon histological scoring (ranging from 0 to 4) was performed as described by Berg, et. al. to assess intestinal lesions and their severity.

IL-6 and MIP-2 mRNA = assay: Real time PCR of proinflammatory cytokine mRNA in colonic tissue, DSS model
Procedure: In the DSS-model proinflammatory cytokines were measured by real time PCR. Total RNA was extracted from DSS treated, DSS+ATL-801 and control colonic tissue using the TRizol reagent. After quantification, a reverse transcription (RT) reaction was performed with 2 μg of each sample and oligo-dT primer, using the SuperScript First strand synthesis system for RT-PCR (Invitrogen, CA). The real-time iCycler sequence detection system (Bio-Rad) was used for the real-time RT-PCR. […] The 36B4 expression levels were used as reference, and fold-induction was calculated using a standard curve. For graphical representation of quantitative PCR data, raw cycle threshold values (Ct values) obtained for treated mice were deducted from the Ct value obtained for internal 36B4 transcript levels, using the Ct method as follows: ΔΔCT=(Ct Target−Ct 36B4)treatment−(Ct Target−Ct 36B4) no treatment, and the final data were derived from 2^−ΔΔCT. […] In IL-10−/− model proinflammatory cytokines were measured by ELISA in organ cultures. […] Supernatants were harvested after 24 hours, centrifuged and stored at −80° C. before IL-6 and keratinocyte derived chemokine, KC levels were measured by ELISA. […] IL-8 was measured in the supernatants by ELISA.

A2b receptor expression = assay: Western blot of A2b receptor in colonic lysates, DSS model; conditions: baseline and after DSS treatment
Excerpt: Colonic tissue was homogenized and cell lysates were subjected to immunoblotting using anti-A2b receptor antibody (1:1000). β-tubulin was used as loading control. Blot shown is representative of 4 animals per condition.

[2] = system: IL-10-/- mice with piroxicam induced colitis; assay: Piroxicam induced colitis in IL-10-/- mice: body weight, histological score, colon length
Excerpt: IL-10^−/− mice spontaneously develop a chronic, T-cell mediated, transmural colitis that shares many features with human Crohn's disease. Based on this model, there have been several clinical trials using IL-10 treatment for IBD in human patients 13 However, due to the inconsistency in the development of spontaneous colitis in IL-10^−/− mice, Berg and his colleagues have described rapid development of colitis in IL-10^−/− mice treated with a nonsteroidal anti-inflammatory drug piroxicam (NSAID)^9. Accordingly, mice were treated with piroxicam, 200 mg/kg diet, for two weeks to induce colitis. Mice were administered ATL-801 for a week prior to treatment with piroxicam, and ATL-801 treatment was continued during piroxicam administration. Two weeks after the induction of colitis, mice were euthanized, and colonic tissue was analyzed.
as §1

IL-6 and KC secretion = assay: IL-6 and KC ELISA in colon organ culture supernatants, IL-10-/- model
Procedure: In the DSS-model proinflammatory cytokines were measured by real time PCR. Total RNA was extracted from DSS treated, DSS+ATL-801 and control colonic tissue using the TRizol reagent. After quantification, a reverse transcription (RT) reaction was performed with 2 μg of each sample and oligo-dT primer, using the SuperScript First strand synthesis system for RT-PCR (Invitrogen, CA). The real-time iCycler sequence detection system (Bio-Rad) was used for the real-time RT-PCR. Briefly, 3 ng of reverse transcribed cDNA, 500 nM of gene-specific primers and the iQ SYBR Green Supermix (Biorad, Hercules, Calif.) were amplified at 50° C. for 2 min and 95° C. for 10 min, followed by 40 cycles of 95° C. for 15 s and 60° C. for 1 min. The 36B4 expression levels were used as reference, and fold-induction was calculated using a standard curve. For graphical representation of quantitative PCR data, raw cycle threshold values (Ct values) obtained for treated mice were deducted from the Ct value obtained for internal 36B4 transcript levels, using the Ct method as follows: ΔΔCT=(Ct Target−Ct 36B4)treatment−(Ct Target−Ct 36B4) no treatment, and the final data were derived from 2^−ΔΔCT. Primers used: IL-6 sense 5′-ACAAGTCGGAGGCTTAATTACACAT-3′ (SEQ ID NO:1) antisense 5′-TTGCCATTGCACAACTCTTTTC-3′ (SEQ ID NO:2), MIP-2 sense 5AGT GAA CTG CGC TGT CAA TGC-3′ (SEQ ID NO:3) antisense 5′ AGGCAAACTTTTTGACCGCC 3′ (SEQ ID NO:4). In IL-10−/− model proinflammatory cytokines were measured by ELISA in organ cultures. Colon organ cultures were prepared from IL-10^−/− mice with and with out ATL-801 along with piroxicam. Colons were dissected from mice and flushed with cold PBS to remove fecal matter. Each colon was cut in to 1 cm length and washed in HBSS with pencillin/streptomycin and cultured in serum free RPMI-1640 supplemented with penicillin and streptomycin. […] Supernatants were harvested after 24 hours, centrifuged and stored at −80° C. before IL-6 and keratinocyte derived chemokine, KC levels were measured by ELISA. […] IL-8 was measured in the supernatants by ELISA.

## CCCn1c(=O)n(C2CC2)c(=O)c2[nH]c(-c3ccc(N(CC)C(=O)c4cccnc4)nc3)nc21 [ATL-801]
[1]; 3% DSS 6 days + ATL 10 mg/Kg, DSS 2.6 ± 0.6
  Ulceration (histological assessment): 1.0 ± 1
[1]; 3% DSS 6 days + ATL 10 mg/Kg, DSS 2.8 ± 1.5
  Crypt Damage (histological assessment): 1.9 ± 0.6
[1]; 3% DSS 6 days + ATL 10 mg/Kg, DSS 3.7 ± 0.2
  Inflammation (histological assessment): 1.2 ± 0.2
[1]; 3% DSS 6 days + ATL 10 mg/Kg
  Total Lesion Score (histological score): 4.1 ± 1.8
[1]; 3% DSS 6 days + ATL 10 mg/Kg, listed as antagonist
  Total Lesion Score (histological score): 4.1±1.8
[1]; DSS 3% 6 days + ATL-801 10 mg/Kg in diet, score range 0-12, DSS alone 9.4±1.1
  clinical score (clinical disease activity score): 4.4±1.5
[1]; DSS 6 days + antagonist 10 mg/Kg, DSS alone 4.5±0.26 cm
  colon length: 6.04±0.16 cm
[1]; DSS + A2b antagonist, colon with solid stool pellets, DSS alone 0.26±0.03 g
  colon weight: 0.48 ± 0.03 g
[1]; DSS + A2b receptor antagonist, DSS-fed mice had watery diarrhea
  stool consistency: solid stools
[1]; antagonist without DSS, vehicle 6.5±0.25
  colon length, group not administered DSS: 7.5 cm
[1]; mice given ATL-801 alone, no DSS
  adverse effects on clinical score, ATL-801 alone: did not show any adverse affects on clinical score
[1]; no DSS
  histological signs of inflammation, water control group receiving antagonist: not detected
IL-6 and MIP-2 mRNA; DSS + antagonist, normalized to 36B4, DSS 7.2±1.7
  IL-6 mRNA in colonic mucosal tissue: 1.8±0.7 fold increase compared to untreated
IL-6 and MIP-2 mRNA; DSS+ATL-801, fold increase over control (FIG. 5B), DSS 28.1±3.8
  MIP-2 mRNA levels: 13.62±3.0
A2b receptor expression
  effect on A2b receptor expression (Western blot): affected neither baseline level of A2b receptor nor DSS-induced increase in A2b receptor expression
[2]; IL-10-/- mice treated with ATL-801 alone (data not shown)
  histology, ATL-801 alone: normal histology
[2]; IL-10-/- mice, ATL-801+piroxicam, piroxicam 7.0±0.25 cm
  colon length: 8.4±0.23 cm
[2]; IL-10-/- mice, piroxicam + ATL-801, score 0 to 4, piroxicam 2.8±1.0
  mean histological score: 1.3±0.3
[2]; IL-10-/- mice, piroxicam+ATL-801 10 mg/Kg diet, FIG. 8A percent body weight change, piroxicam Δ−2.05±0.7
  body weight change (Δ): +0.2±0.5
IL-6 and KC secretion; ATL-801 alone (data not shown)
  effect of ATL-801 alone on IL-6 or IL-8 levels: no effect
IL-6 and KC secretion; IL-10-/- mice, piroxicam + ATL-801, 24 h culture, piroxicam alone 1.9±0.3, untreated 0.7±0.1
  IL-6 levels in colon culture supernatant: 0.46 ± 0.1 ng/mL
IL-6 and KC secretion; IL-10-/- mice, piroxicam+ATL-801, piroxicam alone 5.6±0.6
  KC secretion in colon culture supernatant: 3.7 ± 0.8 ng/mL
